Literature values in patent publication US11351151B2, “Compound having anticancer activity and preparation method and application” (3D Medicines (Beijing) Co., Ltd., priority 2016, dated 2022).

Settings: liver cancer patients, phase III; cited from earlier work

CNC(=O)c1cc(Oc2ccc(NC(=O)Nc3ccc(Cl)c(C(F)(F)F)c3)cc2)ccn1 [Sorafenib]
ORR (overall response rate): 6.9% | TTP (time to progression): 4.0 months
